From US9341616B2, “Sweet taste receptor chimeric proteins and use thereof” (AJINOMOTO CO., INC., priority 2014, dated 2016)
Residues, ends and D or L forms follow the SMILES beside them.

Target: h-mT1R2-EX5/T1R3mosaicA (UniProt Q8TE23+Q925D8, A12W/A31M/A537S/A558R/A564V/A568V/A570T/A588V/A645S/A649T/A658V/A698V/A702T/A782V/A793V/A807V/C582S/C678S/E16H/E530V/E534N/E542M/E548N/E725V/F14L/F29L/F525Y/F541I/F612A/F622V/F665L/F695L/G696N/G701T/H528R/H728R/I36V/I490V/I510L/I518V/I595M/I60P/I617V/I643V/I645L/I692L/I695G/I706V/I740A/I803L/K30R/K504M/K555R/K565R/K626T/K714N/K818R/K827G/L17P/L521P/L560F/L571I/L578I/L610P/L631F/L636F/L639V/L684P/L688V/L702I/L734M/L735F/L800F/L823M/L825Q/M19T/M492I/M616G/M644L/M682V/M690V/M744T/M748V/N52R/N540G/N541S/N547G/N58S/N63T/N675D/N721H/P545F/P561R/P564S/P61V/P638T/P824S/Q32K/Q536L/Q53S/Q546K/Q550E/Q555R/Q56R/Q611L/Q676H/Q757R/Q795R/Q831P/R498S/R632Q/R667S/S22P/S45E/S501P/S547N/S550A/S576L/S595F/S610P/S628F/S635P/S637R/S663R/S670G/S679G/S681F/S703N/S717H/S727G/S784D/S804G/T46A/T50G/T529S/T542A/T549I/T609V/T629S/T642S/T663I/T694M/T705I/T706G/T716I/T813A/V508I/V512P/V557A/V573A/V584A/V585L/V613L/V617M/V673M/V687A/V691A/V694A/V718L/V718M/V723A/V729T/V738A/V741L/V774I/V791M/V805L/V812A/V821L/W599R/W676R/W824R/Y533F/Y615F/Y671F/Y680C/Y769S/Y783H/Y794L)
Sequence (Q8TE23 with tags, fused parts or gaps with the stated changes limits assumed): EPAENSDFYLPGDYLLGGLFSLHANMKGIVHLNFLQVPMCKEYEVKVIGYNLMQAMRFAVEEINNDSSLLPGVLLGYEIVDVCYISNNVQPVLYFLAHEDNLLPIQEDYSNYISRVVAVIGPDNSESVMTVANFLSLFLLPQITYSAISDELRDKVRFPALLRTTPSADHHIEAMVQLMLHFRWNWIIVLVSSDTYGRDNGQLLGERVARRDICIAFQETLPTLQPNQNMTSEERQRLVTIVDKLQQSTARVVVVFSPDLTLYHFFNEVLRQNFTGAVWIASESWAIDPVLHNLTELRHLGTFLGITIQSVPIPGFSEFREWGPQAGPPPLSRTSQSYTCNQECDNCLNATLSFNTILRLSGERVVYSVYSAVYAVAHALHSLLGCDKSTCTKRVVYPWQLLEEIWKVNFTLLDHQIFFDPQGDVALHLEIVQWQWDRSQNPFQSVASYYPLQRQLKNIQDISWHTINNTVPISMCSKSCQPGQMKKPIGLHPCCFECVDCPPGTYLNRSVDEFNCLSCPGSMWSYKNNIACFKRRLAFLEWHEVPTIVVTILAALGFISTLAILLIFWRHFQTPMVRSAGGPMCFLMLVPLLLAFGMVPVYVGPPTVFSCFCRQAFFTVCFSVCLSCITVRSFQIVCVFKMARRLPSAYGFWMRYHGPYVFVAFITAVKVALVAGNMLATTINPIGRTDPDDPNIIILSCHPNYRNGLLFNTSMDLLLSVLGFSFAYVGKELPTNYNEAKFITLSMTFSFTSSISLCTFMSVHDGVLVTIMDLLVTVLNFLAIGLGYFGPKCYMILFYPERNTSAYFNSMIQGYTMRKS
Sequence (Q925D8 with tags, fused parts or gaps with the stated changes limits assumed): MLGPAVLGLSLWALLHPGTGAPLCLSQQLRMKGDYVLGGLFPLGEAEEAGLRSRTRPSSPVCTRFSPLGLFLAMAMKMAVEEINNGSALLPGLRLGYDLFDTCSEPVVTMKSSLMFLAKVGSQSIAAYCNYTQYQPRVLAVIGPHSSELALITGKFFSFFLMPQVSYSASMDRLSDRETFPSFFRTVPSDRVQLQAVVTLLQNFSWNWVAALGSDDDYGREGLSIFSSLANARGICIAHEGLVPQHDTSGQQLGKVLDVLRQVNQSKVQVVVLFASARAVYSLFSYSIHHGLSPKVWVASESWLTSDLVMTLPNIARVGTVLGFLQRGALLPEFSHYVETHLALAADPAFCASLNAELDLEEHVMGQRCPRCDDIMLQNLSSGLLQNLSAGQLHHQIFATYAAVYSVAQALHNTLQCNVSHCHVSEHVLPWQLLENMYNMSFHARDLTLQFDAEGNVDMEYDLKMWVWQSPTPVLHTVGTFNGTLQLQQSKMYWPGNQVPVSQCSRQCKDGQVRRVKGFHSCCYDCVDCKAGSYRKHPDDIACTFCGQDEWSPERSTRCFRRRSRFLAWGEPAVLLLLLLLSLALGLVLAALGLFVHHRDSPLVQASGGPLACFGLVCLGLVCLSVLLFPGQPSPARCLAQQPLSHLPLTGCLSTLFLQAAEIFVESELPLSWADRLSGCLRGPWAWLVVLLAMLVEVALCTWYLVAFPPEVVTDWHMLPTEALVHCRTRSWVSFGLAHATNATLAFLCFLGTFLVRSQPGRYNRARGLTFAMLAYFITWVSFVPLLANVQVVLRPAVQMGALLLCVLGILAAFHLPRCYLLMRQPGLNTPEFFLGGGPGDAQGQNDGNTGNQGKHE
Conditions: Table 4; genes h-mTEX5/T3mA (h-mT1R2-EX5, T1R3mA); HEK293E cells

Row | Structure (SMILES) | S/N
1 | OC[C@H]1O[C@@](CO)(O[C@H]2O[C@H](CO)[C@@H](O)[C@H](O)[C@H]2O)[C@@H](O)[C@@H]1O [Sucrose, sucrose] | 3.5
2 | O=C1NS(=O)(=O)c2ccccc21.[Na] [Saccharin Na, sodium saccharin] | 4.6
3 | COC(=O)[C@H](Cc1ccccc1)NC(=O)[C@@H](N)CC(=O)O [Aspartame, aspartame] (HELM PEPTIDE1{D.F.[CO[*:1]]}$$$$V2.0) | 7.6
4 | COC(=O)[C@H](Cc1ccccc1)NC(=O)[C@H](CC(=O)O)NCCCc1ccc(OC)c(O)c1 [Advantame, advantame] | 9.4
5 | CC1=CC(=O)NS(=O)(=O)O1 [Acesulfame K, acesulfame potassium] | 5.1
6 | COC(=O)[C@H](Cc1ccccc1)NC(=O)[C@H](CC(=O)O)NCCC(C)(C)C [Neotame, neotame] | 7.5
7 | C[C@H](NC(=Nc1ccc(C#N)cc1)NCC(=O)O)c1ccccc1 [SC-45647, [3-[(S)-1-phenylethyl]-2-(4-cyanophenyl)guanidino]acetic acid] | 7.3
8 | OC[C@H]1O[C@H](O[C@]2(CCl)O[C@H](CCl)[C@@H](O)[C@@H]2O)[C@H](O)[C@@H](O)[C@H]1Cl [Sucralose, sucralose] | 7.4
